Consider 73 molecules from PubChem BioAssay AID179 (DTP/NCI, 2004).

The subject of this experiment is CEM cells HIV-1 protection, formazan growth assay. Briefly: NCI AIDS Antiviral Assay. The note with it: for IC50: measured here: growth of uninfected CEM cells. The method in brief: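 Steps: treat uninfected and HIV-1-infected human CEM cells at five drug levels; quantify growth by soluble formazan; retest any compound reaching 50% protection; classify actives from the retest.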

Where “and” joins values, the source holds several entries; their conditions need not be identical. Identical values can stand only once. Calls of active or inactive are those of the source.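 How the source made its calls: active means compounds giving half or more protection of infected cells from virus-caused growth loss, again on retest; inactive means the rest.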 Where only a bound is given, the exact number is not on record here.

Take `NC(N)=NCCCC(NCc1c2ccccc2[n+]([O-])c2ccccc12)C(=O)O` (stereo not drawn): the outcome was inactive.
As for `CC(C)[Si](CC1=CCCCC12C(=O)N(COCC[Si](C)(C)C)c1ccccc12)(C(C)C)C(C)C` (stereo not drawn), the EC50 – broadly, the concentration at which the effect is half-maximal – was greater than 200 µM and the IC50 (in general, the concentration at which inhibition is half-maximal) was greater than 200 µM.
As for `COc1ccc(-n2cnc3c(NC(C)(C)C(=O)O)ncnc32)cc1`, the EC50 is greater than 200 µM and the IC50 was found to be 126 µM.
Consider `O=C1CCC2(c3ccc(Cl)cc3)Nc3ncccc3N12` (stereo not drawn), for which the EC50 is greater than 126 µM and the IC50 is 97.7 µM.
The matching figures for `COc1ccc(N=CN(C)C)c(C)c1`: greater than 200 µM and 3.98 µM.
For `Cc1ccc(C)c2c1CC(Cc1ccccc1C(=O)O)C2=O` (stereo not drawn), the EC50 was greater than 200 µM and the IC50 is 158 µM.
`CC(C)(C)OC(=O)c1ccc(NCc2cc(O)ccc2O)cc1`: the EC50 is greater than 200 µM and the IC50 came out at 3.16 µM.
The matching figures for `CCOc1ccc(/C=C2/C(=O)N(/C=C3/C(=O)Oc4ccccc4C3=O)C(=NC(C)=O)N2C)cc1`: greater than 200 µM and greater than 200 µM.
Take `CC[C@@]1(O)C(=O)OCc2c1cc1n(c2=O)Cc2c-1nc1ccccc1c2Cl`: the EC50 is greater than 10 µM and the IC50 came to 0.0331 µM.
The like results for `NN=C(CC(O)(C(F)(F)Cl)C(F)(F)Cl)CC(O)(C(F)(F)Cl)C(F)(F)Cl` were, in that order, greater than 200 µM and 6.92 µM.
Turning to `N#CCN1CCCN(CC#N)CCN(CC#N)CCCN(CC#N)CC1`, the EC50 is greater than 200 µM and the IC50 came to 141 µM.
On to `O=C1/C(=C/c2ccc(Cl)cc2)CCc2ccccc21`, for which the EC50 is greater than 19.5 µM and the IC50 is greater than 19.5 µM.
For `O=C(CCc1n[nH]c(=S)o1)Nc1ccccc1C(F)(F)F`, the EC50 is greater than 295 µM and the IC50 is 229 µM.
The matching figures for `COc1ccc(/C=C2\CN(C)CC3C2=NC(=S)NC3c2ccc(OC)cc2)cc1` (stereo not drawn): greater than 200 µM and 6.61 µM.
As to `CC12CCC3=C(CSC4=C3CSc3ccccc34)C1=CCCC2=O` (stereo not drawn), the EC50 is greater than 200 µM and the IC50 is greater than 200 µM.
For `Cc1ccc2c(c1)C(=O)N1CCC[C@H]1C=N2`, the EC50 was greater than 200 µM and the IC50 turned out to be 3.63 µM.
`COc1ccc(N=Nc2c(N)nn(C)c2N)cc1`: the outcome was inactive.
`Nc1ccc(F)cc1-c1nc2ccc(F)cc2c2nc3ccccc3n12`: the outcome was inactive.
As to `CC1=C(c2ccc(C)cc2)NC(=S)C(C)C(c2ccc(C)cc2)=N1` (stereo not drawn), the EC50 is greater than 200 µM and the 50% inhibitory concentration (IC50) came to 97.7 µM.
For `Cc1ccc(S(=O)(=O)NC2CCCCO2)cc1` (stereo not drawn), the EC50 was greater than 708 µM and the IC50 is greater than 708 µM.
On to `O=C(O)c1cccc(/C=C/c2ccc(N=Nc3cc(S(=O)(=O)O)c4cccnc4c3O)cc2C(=O)O)c1`, for which the EC50 is 166 µM and the IC50 is greater than 200 µM.
In the case of `CC(=O)OCC(OC(C)=O)C(OC(C)=O)C(OC(C)=O)C(=O)CNn1c(-c2ccc(C)cc2)nc2ccccc2c1=O` (stereo not drawn), the outcome was inactive.
As for `CC(=O)/C(=C\c1cccc([N+](=O)[O-])c1)C(=O)Nc1ccccc1C`, the EC50 is greater than 22.4 µM and the IC50 is greater than 22.4 µM.
With `Cc1cc(NS(=O)(=O)c2ccc(NO)cc2)no1`, the EC50 is greater than 70.8 µM and the IC50 was 15.8 µM.
On to `COC1CCON1C(=O)c1ccccc1` (stereo not drawn), for which the EC50 was greater than 200 µM and the IC50 is greater than 200 µM.
As for `CN(CCN1C(=O)c2cccc3cc(N)cc(c23)C1=O)CCN1C(=O)c2cccc3cc(N)cc(c23)C1=O`, the EC50 was greater than 21.9 µM and the IC50 came to 0.155 µM.
In the case of `Cc1ccc(/C(C#N)=C/c2ccccc2)cc1`, the EC50 is greater than 200 µM and the IC50 turned out to be 28.8 µM.
The matching figures for `CC(C)OP(=O)(OC(C)C)/C(N)=N/Nc1ccc([N+](=O)[O-])cc1`: greater than 195 µM and greater than 100 µM.
On to `NC1(CSS(=O)(=O)O)CCN1` (stereo not drawn), for which the EC50 was greater than 200 µM and the IC50 is greater than 200 µM.
As to `CC(C)=CCC/C(C)=C/COC(=O)N(c1ccccc1)c1ccccc1`, the EC50 was greater than 200 µM and the IC50 was greater than 200 µM.
Turning to `CSc1c(S(C)=O)c2ccccc2n1C` (stereo not drawn), the EC50 is greater than 200 µM and the IC50 was greater than 200 µM.
For `CC(C)(C)C1(O)Cc2ccccc2C(=O)O1` (stereo not drawn), the EC50 is greater than 309 µM and the IC50 is greater than 309 µM.
In the case of `CS(=O)(=O)C1S(=O)(=O)OCCOS1(=O)=O`, the EC50 is greater than 891 µM and the IC50 was greater than 891 µM.
`OC1CCC(COC(c2ccccc2)(c2ccccc2)c2ccccc2)O1` (stereo not drawn): the EC50 is greater than 200 µM and the IC50 is 24.5 µM.
The matching figures for `CC(=O)c1cccc(NC2C(N)C(NC(=O)N(C)C)(C(C)O)C(C)(O)C2(O)COC(=O)c2c(C)cccc2O)c1` (stereo not drawn): greater than 64.6 µM and 0.0427 µM.
With `C1COC2(CNCC3(CNC2)OCCO3)O1`, the EC50 is greater than 200 µM and the half-inhibitory concentration (IC50) is 174 µM.
For `C/C(CCO)=N\NC(N)=S`, the EC50 was greater than 200 µM and the IC50 is greater than 200 µM.
For `S=C(S)N1CCN(c2ccc(Cl)c(Cl)c2)CC1`, the EC50 was greater than 200 µM and the IC50 was determined as 26.9 µM.
As to `COC(=O)c1ccc(/C=C2\Oc3cc(O)ccc3C2=O)cc1`, the EC50 was greater than 200 µM and the IC50 was determined as 182 µM.
As for `COC1c2ccccc2CC(c2ccccc2)=NN1C(C)=O` (stereo not drawn), the EC50 is greater than 89.1 µM and the IC50 was 51.3 µM.
Regarding `CCn1c(=O)c2c3ccc(OC(C)=O)cc3[nH]c2c2ccc(OC(C)=O)cc21`, the EC50 is greater than 200 µM and the IC50 was 26.9 µM.
The matching figures for `Cc1ccc(C(=O)Nc2ccc(S(=O)(=O)O)c3cc(S(=O)(=O)O)cc(S(=O)(=O)O)c23)cc1NC(=O)c1cccc(NC(=O)Nc2cccc(C(=O)Nc3cc(C(=O)Nc4ccc(S(=O)(=O)O)c5cc(S(=O)(=O)O)cc(S(=O)(=O)O)c45)ccc3C)c2)c1`: 34.7 µM and 174 µM.
Turning to `CC(C)(C)c1ccc(OP(=S)(NN)Oc2ccc(C(C)(C)C)cc2)cc1`, the EC50 was greater than 61.7 µM and the IC50 turned out to be 30.2 µM.
The like results for `O/N=C(\CC(O)(C(F)(F)F)C(F)(F)F)c1cccs1` were, in that order, greater than 200 µM and greater than 100 µM.
`CCSC(SCC)C(O)C(O)C(O)C(O)C(O)C(O)CO` (stereo not drawn): the result was inactive.
As to `CC1=C(O)C(=O)C(c2c(C)cc(C)c(Br)c2C)=C(O)C1=O`, the EC50 is greater than 115 µM and the IC50 is 15.5 µM.
In the case of `NS(=O)(=O)c1ccc(NC(=O)c2cccc3c(=O)c4ccccc4[nH]c23)cc1`, the outcome was inactive.
As for `CCCN=C(C(C)=O)N(C)C`, the EC50 is greater than 1580 µM and the IC50 was 871 µM.
For `CNC(=O)CC1NC(=O)c2csc(n2)-c2ccc(-c3nc(C4=NC(C(=O)N5CCCC5C(N)=O)CO4)cs3)nc2-c2csc(n2)-c2csc(n2)C(C(C)C)NC(=O)CNC(=O)c2csc(n2)C(C(C)C)NC(=O)c2nc1sc2C` (stereo not drawn), the EC50 is greater than 10 µM and the IC50 is greater than 10 µM.
Take `CC(C)(CCNc1c2ccccc2nc2cccc([N+](=O)[O-])c12)[N+](C)(C)[O-]`: the EC50 was greater than 0.2 µM and the IC50 amounted to 0.12 µM.
For the molecule `COC(=O)N/N=C(/CCCC(=O)Nc1cccc([N+](=O)[O-])c1)C(C#N)c1ccc(CC#N)cc1` (stereo not drawn), the result was inactive.
`COc1ccc2c(c1OC)OCC(CN(C)C)C2=O` (stereo not drawn): the result was inactive.
For the molecule `O=C(O)c1cnnc2ccccc12`, the EC50 is greater than 1450 µM and the IC50 is greater than 1450 µM.
For `O=c1[nH]c2nc3ccccc3nc2[nH]c1=O`, the IC50 is > 200 µM and 151 µM.
For the molecule `CC1=Nc2nc(Cl)cn2C(=O)C1(Cl)Cl`, the EC50 is greater than 200 µM and the IC50 was determined as 33.1 µM.
As for `[N-]=[N+]=Nc1c(N2CCOCC2)c(Cl)nc2ccccc12`, the EC50 is greater than 200 µM and the IC50 came to 55 µM.
Turning to `CC(=O)Nc1ccc(/C(C#N)=C/c2ccc(N(C)CCC#N)cc2)cc1`, the EC50 is greater than 200 µM and the IC50 amounted to 19.1 µM.
For `CCOC(=O)C(=O)/C(=C/N1C(=O)CC(=O)NC1=S)C(=O)OCC`, the EC50 was greater than 200 µM and the IC50 was greater than 200 µM.
Consider `O=c1c(SSc2coc3cc(F)ccc3c2=O)coc2cc(F)ccc12`, for which the EC50 was greater than 200 µM and the IC50 was determined as 2.75 µM.
Turning to `CO/C=C/c1cc2c(cc1C(OC)OC)OCO2`, the result was inactive.
`O=S(=O)([O-])[O-].[OH3+].[OH3+].[OH3+].[Ru+2].c1ccccc1`: the EC50 was greater than 79.4 µM and the IC50 is greater than 79.4 µM.
For `Cc1cc(N(CCC#N)CCC#N)ccc1/C(N=Nc1ccccc1)=N\NC(=O)c1ccccc1`, the EC50 is greater than 200 µM and the half-maximal inhibitory concentration (IC50) was 13.8 µM.
On to `NC(CSS(=O)(=O)O)=NCCCc1ccccc1`, for which the EC50 was greater than 200 µM and the IC50 came out at 110 µM.
Consider `CC(=O)CC(=O)CCCC(=O)Nc1ccc(Cl)cc1C`, for which the result was inactive.
Consider `CCOC(=O)c1sc(SC)nc1NC(=O)c1ccc(Cl)cc1`, for which the EC50 was greater than 200 µM and the IC50 is greater than 200 µM.
For the molecule `c1ccc2c(c1)nc1nc3c(cn12)CCCC3`, the EC50 is greater than 151 µM and the IC50 is greater than 151 µM.
As to `CCNC(=O)Sc1ccccc1C(=O)N[C@H](C)C(N)=O`, the EC50 is 1.15 µM and the IC50 amounted to 93.3 µM.
The like results for `CCCCCCCCCCCCCCCCOC[C@H](COC(c1ccccc1)(c1ccccc1)c1ccccc1)O[P+](=S)OC` (stereo partly drawn) were, in that order, greater than 100 µM and 57.5 µM.
For the molecule `NCCN.NCCN.O=C([O-])CCl.O=C([O-])CCl.[Co+3].[O-][Cl+3]([O-])([O-])[O-]`, the result was inactive.
Take `COc1ccc(NC(=O)/C(Cc2nc3ccccc3[nH]c2=O)=N\O)c(OC)c1`: the outcome was inactive.
As to `O=C1CCC2(c3ccc(Cl)cc3)Nc3ccc(Cl)cc3N12` (stereo not drawn), the EC50 is greater than 16.2 µM and the IC50 was greater than 16.2 µM.
Take `CN=C1OC2(c3ccccc3)C3=C(OC(=NC)N2C)C(=O)OC3(c2ccccc2)N1C` (stereo not drawn): the EC50 is greater than 200 µM and the concentration for half-maximal inhibition (IC50) was found to be 148 µM.
In the case of `CC(C)=CC(=O)OC1C2C(C)=CC(=O)C(O)C2(C)C2C3(O)OCC24C(CC(=O)OC14)C(C)C3O` (stereo not drawn), the EC50 is greater than 0.2 µM and the IC50 worked out at 0.0112 µM.
